Patent US12617794B2, “GABAA positive allosteric modulator compounds, methods of making, and uses thereof” (NEUROCYCLE THERAPEUTICS, INC., priority 2019, dated 2026)
Values after ≈ are worked out from the molar mass of the structure shown. Counter-ions that a name gives are not always drawn. Like-named read-outs stand apart in the source and are kept apart here. Values belong to the compound of their own block, whether it stands above or below them.

Assays:
Assay type in all cases: physicochemical
[1] = Dynamic vapor sorption (DVS) of salts (38.9); settings: for DVS absorption / moisture: between 0% to 90% RH
Method: DVS was determined using IGA Sorp (Hiden Isochema, UK). The sample was tested at a targeted RH of 0 to 90% full cycle in step mode. The analysis was performed in 10% RH increments.

[2] = One week accelerated stability testing (Example 3)
Method: The stability of Phosphate Polymorphic Form A and Free Base Polymorphic Form A were evaluated under accelerated conditions.

[3] = Solubility in aqueous buffers, SGF, FaSSIF and FeSSIF (Example 15); settings: ~20-25° C., ~24 hours; for solubility thermodynamic: 20 °C, thermodynamic from solid, read-out: Measured Conc.; for Measured Conc. (μg/mL): LOQ: 0.1 μg/mL
Method: About 2 mg of test article was added to a 1.5 mL vials which contained ˜1.0 mL of one medium listed in Table 7 and Table 8, which was then sealed. The mixtures were stirred at ˜20-25° C. for ˜24 hours. After that, the mixture was filtered by 0.45 μm filter membrane and then the supernatant was analyzed by HPLC.

[4] = Intrinsic dissolution rate in SGF (Example 16); settings: 37° C., 100 rpm, linear scope within 2 to 120 min
Method: About 100 mg of Free Base Polymorphic Form A or Phosphate Polymorphic Form A was weighed into the intrinsic dissolution apparatus and the sample compressed for 1 minute with a compression force of ˜4 MPa to form a compacted pellet within the stainless-steel die. All loose powder was removed from the surface of the die. The intrinsic dissolution shaft was connected with the stainless-steel die and tightened so only one surface of the pellet was exposed (surface area=0.496 cm^2). The shaft in the spindle was adjusted to ensure the exposed surface of the compacted tablet was ˜3.8 cm from the bottom of the vessel when lowered. The temperature of chamber water was set at 37° C.±0.5° C., the shaft rotation at 100 rpm and the sampling time points at 2, 5, 10, 15, 30, 45, 60, 120 min. SGF was used as dissolution medium (900 mL). At each time point, solution samples were filtered, and the supernatant was analyzed by HPLC-UV.

[5] = Solid stability of free base and salts at 60° C. and 40° C./75% RH (38.3, Example 48); settings: for chemical stability / physical stability (crystal form by XRPD): 60° C. and 40° C./75% RH for 7 days; for Crystal form day 7: XRPD
Method: Samples of TPA023B Free Base, TPA023B chloride, TPA023B besylate, and TPA023B sulfate were mounted on stability at 60° C. and 40° C./75% RH for up to 7 days. At day-0, day-3 and day-7, the samples were dissolved in diluent to prepare solutions at 0.5 mg/mL for HPLC analysis. Solid samples were analyzed by XRPD to determine the crystal form.
Solid samples were examined using D8 ADVANCE X-ray diffractometer (Bruker). The diffractometer was equipped with LynxEye detector. In XRPD analysis, samples were scanned from 3 to 40° 2θ at a step of 0.02° 2θ. The tube voltage and current were 40 KV and 40 mA, respectively.

[6] = Reactive crystallization with 1.1 eq phosphoric acid (Example 65); settings: stirred at RT 7 hours
Method: About 25 mg of Free Base Form H was dissolved or suspended in ˜1 mL of a selected solvent. […] The solid was isolated and characterized.
Free Base Form H was dissolved or suspended in ˜1 mL selected solvent. […] Solid was isolated and characterized. No new phosphate Form was obtained in reactive crystallization under this method.

[7] = Slurry of chloride or besylate salt in EA or heptane at 50° C. overnight; settings: slurried in EA or heptane at 50° C. overnight
[8] = 40° C./75% RH, listed as Free base (Form A)
[9] = 60° C., listed as Free base (Form A)

XRPD after DVS [1]: No XRPD change after DVS. | DVS absorption / moisture [1]: DVS: 0-1.4691% absorption
SMILES: CC(C)(O)c1cnn2c(-c3ccc(F)c(-c4c(F)cccc4C#N)c3)cnc2n1 [Chloride Form B, 2′,6-difluoro-5′-[3-(1-hydroxy-1-methylethyl)-imidazo[1,2-b][1,2,4]triazin-7-yl]biphenyl-2-carbonitrile]

Assay (%) ([2]; 40° C./75% RH (open), 1 week): 102.35% | Purity (%) ([2]; 40° C./75% RH (open), 1 week): 98.64% | Assay (%) ([2]; 80° C. (open), 1 week): 101.60% | Purity (%) ([2]; 80° C. (open), 1 week): 98.62% | Purity (%) ([2]; Initial): 98.72% | Assay (%) ([2]; Initial, assay criterion 95%-105%): 105.51% | Assay (%) ([2]; Light, ~50 h): 104.28% | Purity (%) ([2]; Light, ~50 h): 98.60% | Measured Conc. ([3]; Purified water): 0.14 µg/mL | solubility thermodynamic ([3]; fasted-state simulated intestinal fluid (FaSSIF), fassif, FaSSIF): 2.11 µg/mL (≈ 5.39 µM) | solubility thermodynamic ([3]; fed-state simulated intestinal fluid (FeSSIF), fessif, FeSSIF): 9.63 µg/mL (≈ 24.6 µM) | Measured Conc. ([3]; pH 1.2 Hydrochloric Acid Buffer (50 mM)): 9.77 µg/mL | Measured Conc. (μg/mL) ([3]; pH 3.0 citrate buffer (100 mM)): <LOQ | Measured Conc. (μg/mL) ([3]; pH 4.5 citrate buffer (100 mM)): <LOQ | Measured Conc. (μg/mL) ([3]; pH 7.4 PBS (50 mM)): <LOQ | Measured Conc. (μg/mL) ([3]; pH 9.0 USP Buffer (50 mM)): <LOQ | solubility thermodynamic ([3]; simulated gastric fluid (SGF), simulated gastric fluid, SGF): 1.38 µg/mL (≈ 3.53 µM) | intrinsic dissolution rate [4]: 5×10^−5 mg·cm^2·min^−1 | HPLC Purity (%) day 3 [5, 8]: 98.2% | HPLC Purity (%) day 7 [5, 8]: 98.2% | chemical stability [5]: chemically stable | physical stability (crystal form by XRPD) ([5]; listed as TPA023B free base): physically stable | physical stability (crystal form by XRPD) ([5]; listed as TPA-23B free base): remained unchanged | HPLC Purity (%) day 3 [5, 9]: 98.1% | HPLC Purity (%) day 7 [5, 9]: 98.3% | HPLC Purity (%) day 0 ([5]; listed as Free base (Form A)): 98.1%
SMILES: CC(C)(O)c1cnn2c(-c3ccc(F)c(-c4c(F)cccc4C#N)c3)cnc2n1 [Free Base Polymorphic Form A, 2′,6-difluoro-5′-[3-(1-hydroxy-1-methylethyl)-imidazo[1,2-b][1,2,4]triazin-7-yl]biphenyl-2-carbonitrile]

Result (solid form obtained) ([6]; solvent 1,4-dioxane): Phosphate Form A | Result (solid form obtained) ([6]; solvent ACN): Phosphate Form A | Result (solid form obtained) ([6]; solvent Acetone): Phosphate Form A | Result (solid form obtained) ([6]; solvent BAC): Phosphate Form A | Result (solid form obtained) ([6]; solvent Cyclohexanone): Phosphate Form A | Result (solid form obtained) ([6]; solvent DCM): Phosphate Form A | Result (solid form obtained) ([6]; solvent DEE): Phosphate Form A | Result (solid form obtained) ([6]; solvent EA): Phosphate Form A | Result (solid form obtained) ([6]; solvent IPAC): Phosphate Form A | Result (solid form obtained) ([6]; solvent MEK): Phosphate Form A | Result (solid form obtained) ([6]; solvent MTBE): Phosphate Form A | Result (solid form obtained) ([6]; solvent N-pentane): Phosphate Form A | Result (solid form obtained) ([6]; solvent PPG 2000): Phosphate Form A | Result (solid form obtained) ([6]; solvent Trichloromethane): Phosphate Form A | Result (solid form obtained) ([6]; solvent polysorbate 80): Phosphate Form A
SMILES: CC(C)(O)c1cnn2c(-c3ccc(F)c(-c4c(F)cccc4C#N)c3)cnc2n1 [Free Base Polymorphic Form H, 2′,6-difluoro-5′-[3-(1-hydroxy-1-methylethyl)-imidazo[1,2-b][1,2,4]triazin-7-yl]biphenyl-2-carbonitrile]

HPLC Purity (%) day 3 ([5]; 40° C./75% RH): 98.8% | HPLC Purity (%) day 7 ([5]; 40° C./75% RH): 98.8% | Crystal form day 7 ([5]; 40° C./75% RH): three extra peaks | Crystal form day 7 ([5]; 40° C./75% RH, listed as TPA-23B besylate): three extra peaks | chemical stability [5]: chemically stable | HPLC Purity (%) day 3 ([5]; 60° C.): 98.8% | HPLC Purity (%) day 7 ([5]; 60° C.): 98.8% | HPLC Purity (%) day 0 [5]: 98.8% | XRPD after DVS [1]: No XRPD change after | DVS absorption / moisture [1]: DVS: 0-1.047% moisture | crystal form after slurry [7]: remained unchanged
SMILES: CC(C)(O)c1cnn2c(-c3ccc(F)c(-c4c(F)cccc4C#N)c3)cnc2n1 [TPA023B Besylate (Form A), 2′,6-difluoro-5′-[3-(1-hydroxy-1-methylethyl)-imidazo[1,2-b][1,2,4]triazin-7-yl]biphenyl-2-carbonitrile]

HPLC Purity (%) day 3 ([5]; 40° C./75% RH): 98.8% | HPLC Purity (%) day 7 ([5]; 40° C./75% RH): 98.8% | chemical stability [5]: chemically stable | physical stability (crystal form by XRPD) [5]: physically stable | physical stability (crystal form by XRPD) ([5]; listed as TPA-23B sulfate): remained unchanged | HPLC Purity (%) day 3 ([5]; 60° C.): 98.8% | HPLC Purity (%) day 7 ([5]; 60° C.): 98.8% | HPLC Purity (%) day 0 [5]: 98.8% | XRPD after DVS [1]: No XRPD change after | hygroscopicity [1]: light hygroscopicity | DVS absorption / moisture [1]: DVS: 0-1.206% moisture
SMILES: CC(C)(O)c1cnn2c(-c3ccc(F)c(-c4c(F)cccc4C#N)c3)cnc2n1 [TPA023B Sulfate (Form A), 2′,6-difluoro-5′-[3-(1-hydroxy-1-methylethyl)-imidazo[1,2-b][1,2,4]triazin-7-yl]biphenyl-2-carbonitrile]

HPLC Purity (%) day 3 ([5]; 40° C./75% RH): 98.8% | HPLC Purity (%) day 7 ([5]; 40° C./75% RH): 98.7% | chemical stability [5]: chemically stable | physical stability (crystal form by XRPD) [5]: physically stable | physical stability (crystal form by XRPD) ([5]; listed as TPA-23B chloride): remained unchanged | HPLC Purity (%) day 3 ([5]; 60° C.): 98.4% | HPLC Purity (%) day 7 ([5]; 60° C.): 98.4% | HPLC Purity (%) day 0 [5]: 97.6% | crystal form after slurry [7]: remained unchanged
SMILES: CC(C)(O)c1cnn2c(-c3ccc(F)c(-c4c(F)cccc4C#N)c3)cnc2n1 [TPA023B chloride (Form C), 2′,6-difluoro-5′-[3-(1-hydroxy-1-methylethyl)-imidazo[1,2-b][1,2,4]triazin-7-yl]biphenyl-2-carbonitrile]
